Measured values: US5830855A, “Lipodepsipeptides as antifungal and fungicidal agents” (priority 1996, dated 1998)
≈ marks a conversion by molar mass, not a printed value.

Experiments:
Aspergillus fumigatus [1] = experiment: Broth microdilution MIC; format: cell-based; conditions: Table 1 (MICs), 16 isolates, 48 hr
Experimental: (§1) Medium: Liquid RPMI 1640 (RPMI) medium with L-glutamine and without sodium bicarbonate (Sigma Chemical Co., R-6504; St. Louis, Mo.) buffered with 0.165M MOPS (34.54 g/liter) was used for in vitro antifungal tests. The medium was adjusted to pH 7.0 with 10M NaOH and filter sterilized.
(§2) Lipodepsipeptide Dilutions: All stock drug solution concentrations were at least 10-fold higher than the highest concentration tested. AmB, ketoconazole, and the test compounds (SR-E, ST-B, and SS-A) were dissolved in sterile distilled water, 0.2N HCl, and 0.001N HCl, respectively. Each stock solution was diluted to 2× the highest concentration of drug tested with RPMI. Two-fold dilutions were made with RPMI medium.
(§3) Preparation of Inoculum Suspensions: On Sabouraud dextose agar (SDA; BBL, Becton and Dickinson and Co., Cockeysville, Md.) all isolates were subcultured at least twice before use to ensure purity and viability. Candida spp. and Saccharomyces cerevisiae were grown for 24 hr at 35° C. Isolates of Cryptococcus neoformans were grown for 48 hr at 35° C. Yeast cells from at least five 1-mm-diameter colonies were suspended in 5 ml of sterile 0.85% saline. The resulting suspension was vortexed for 15 sec. The turbidity of each mixed suspension was measured at 530 nm and adjusted to 1×10^6 to 5×10^6 CFU/ml by the NCCLS spectrophotometric method described by National Committee for Clinical Laboratory Standards. 1992. Reference method for broth dilution antifungal susceptibility testing of yeasts; proposed standard, NCCLS document M27-P (ISBN 1-56238-186-5). NCCLS, Villanova. The final transmission of each yeast suspension ranged from 85-87%.
(§4) Aspergillus fumigatus and Mucor spp. were grown for 1 wk at 35° C. The dermatophytes, Microsporum spp. and Trichophyton spp., were grown for two wk at 30° C. Fungal spores were washed from the plates of all good spore formers (A. fumigatus, Mucor spp., Microsporum canis and Trichophyton spp.) by placing 5 ml of 0.85% saline with 0.2% Tween 80 on the plates and mixing with an inoculating loop. The spore/mycelium suspension was drawn off with a pipette and allowed to settle for at least 5 min. For the poor spore-forming Microsporum audouinii, the procedure was the same except the spore/mycelial suspension was homogenized with a ground glass tissue homogenizer and then allowed to settle for at least 5 min. A small amount of the supernatant was transferred to 5 ml of sterile saline and vortexed. The stock suspensions of all filamentous fungi were measured at 530 nm and adjusted to 85-87% transmission. The concentration (1×10^6 to 5×10^6 CFU/ml) was determined by hemacytometer count or plate count on SDA. All stock suspensions were diluted 1000-fold with RPMI, or 2× the final desired test inocula. The 2× inoculum was diluted 1:1 when the wells were inoculated, and the desired inoculum size was achieved.
(§5) Broth Microdilution Test: Broth microdilution tests were performed using sterile, disposable, multiwell microdilution plates (96 round U-bottom wells) (Falcon 3077; Becton and Dickinson Labware, Lincoln Park, N.J.). The drugs (2× concentrations) were dispensed into the wells of rows number 1 to 10 of the microdilution plates in 100 μl volumes from highest drug concentration to lowest drug concentration. Each well was inoculated with 100 μl of the corresponding 2× concentrated fungal suspension. The wells of row 11 contained the inoculum with drug-free media as a positive growth control and the wells of row 12 contained uninoculated-drug-free medium as a sterility control.
(§6) Incubation and Scoring of MIC: All cultures were incubated without shaking at the temperature used during subculture. Incubation times were 48 hr for Candida spp., S. cerevisiae, A. fumigatus, and Mucor spp; 72 hr for C. neoformans; and 7 days for Microsporum and Trichophyton spp. […]

Candida albicans = experiment: Broth microdilution MIC; format: cell-based; conditions: Table 1 (MICs); Candida albicans, 20 isolates; RPMI pH 7.0, 48 hr; Ktz read at score 2, others at score 0
Experimental: as §1, §2, §3, §4, §5, §6

Candida kefyr [2] = experiment: Broth microdilution MIC; format: cell-based; conditions: Table 1 (MICs), 1 isolate, 48 hr
Experimental: as §1, §2, §3, §4, §5, §6

Candida krusei [3] = experiment: Broth microdilution MIC; format: cell-based; conditions: Table 1 (MICs), 2 isolates, 48 hr
Experimental: as §1, §2, §3, §4, §5, §6

Candida lusitaniae [4] = experiment: Broth microdilution MIC; format: cell-based; conditions: Table 1 (MICs), 2 isolates, 48 hr
Experimental: as §1, §2, §3, §4, §5, §6

Candida parapsilosis [5] = experiment: Broth microdilution MIC; format: cell-based; conditions: Table 1 (MICs), 2 isolates, 48 hr
Experimental: as §1, §2, §3, §4, §5, §6

Candida rugosa [6] = experiment: Broth microdilution MIC; format: cell-based
Experimental: as §1, §2, §3, §4, §5, §6

Candida tropicalis [7] = experiment: Broth microdilution MIC; format: cell-based
Experimental: as §1, §2, §3, §4, §5, §6

Cryptococcus neoformans [8] = experiment: Broth microdilution MIC; format: cell-based
Experimental: as §1, §2, §3, §4, §5, §6

Microsporum spp. [9] = experiment: Broth microdilution MIC; format: cell-based; conditions: Table 1 (MICs), 2 isolates, 7 days
Experimental: as §1, §2, §3, §4, §5, §6

Mucor spp. [10] = experiment: Broth microdilution MIC; format: cell-based; conditions: Table 1 (MICs), 5 isolates, 48 hr
Experimental: as §1, §2, §3, §4, §5, §6

Saccharomyces cerevisiae [11] = experiment: Broth microdilution MIC; format: cell-based; conditions: Table 1 (MICs), 1 strain tested more than once (control ATCC 36375), 48 hr
Experimental: as §1, §2, §3, §4, §5, §6

Trichophyton spp. [12] = experiment: Broth microdilution MIC; format: cell-based; conditions: Table 1 (MICs), 3 isolates, 7 days
Experimental: as §1, §2, §3, §4, §5, §6

Aspergillus fumigatus [13] = experiment: Minimum Fungicidal Concentration (MFC); format: cell-based; conditions: Table 2, 16 isolates, 48 hr
Experimental: as §1, §2, §3, §4, §5, §6

Candida kefyr [14] = experiment: Minimum Fungicidal Concentration (MFC); format: cell-based; conditions: Table 2, 1 isolate, 24 hr
Experimental: as §1, §2, §3, §4, §5, §6

Candida krusei [15] = experiment: Minimum Fungicidal Concentration (MFC); format: cell-based; conditions: Table 2, 2 isolates, 24 hr
Experimental: as §1, §2, §3, §4, §5, §6

Candida lusitaniae [16] = experiment: Minimum Fungicidal Concentration (MFC); format: cell-based; conditions: Table 2, 2 isolates, 24 hr
Experimental: as §1, §2, §3, §4, §5, §6

Candida parapsilosis [17] = experiment: Minimum Fungicidal Concentration (MFC); format: cell-based; conditions: Table 2, 2 isolates, 24 hr
Experimental: as §1, §2, §3, §4, §5, §6

Candida rugosa [18] = experiment: Minimum Fungicidal Concentration (MFC); format: cell-based; conditions: Table 2, 2 isolates, 24 hr
Experimental: as §1, §2, §3, §4, §5, §6

Candida tropicalis [19] = experiment: Minimum Fungicidal Concentration (MFC); format: cell-based; conditions: Table 2, 2 isolates, 24 hr
Experimental: as §1, §2, §3, §4, §5, §6

Cryptococcus neoformans [20] = experiment: Minimum Fungicidal Concentration (MFC); format: cell-based; conditions: Table 2, 14 isolates, 48 hr
Experimental: as §1, §2, §3, §4, §5, §6

Microsporum spp. [21] = experiment: Minimum Fungicidal Concentration (MFC); format: cell-based; conditions: Table 2, 2 isolates, 7 d
Experimental: as §1, §2, §3, §4, §5, §6

Mucor spp. [22] = experiment: Minimum Fungicidal Concentration (MFC); format: cell-based; conditions: Table 2, 5 isolates, 24 hr
Experimental: as §1, §2, §3, §4, §5, §6

Saccharomyces cerevisiae [23] = experiment: Minimum Fungicidal Concentration (MFC); format: cell-based; conditions: Table 2, 1 strain tested more than once, 24 hr
Experimental: as §1, §2, §3, §4, §5, §6

Trichophyton spp. [24] = experiment: Minimum Fungicidal Concentration (MFC); format: cell-based; conditions: Table 2, 3 isolates, 7 d
Experimental: as §1, §2, §3, §4, §5, §6

[25] = tested on: clinical isolates (fungi); experiment: Broth microdilution MIC, fungal isolates overall; format: cell-based; conditions: range over all clinical isolates
Source text: Most of the fungal strains used in the tests were clinical isolates obtained from the University of Texas Health Science Center at San Antonio Fungus Testing Laboratory (San Antonio, Tex.) and the remaining isolates were ATCC strains.
as §1
Lipodepsipeptide Dilutions: All stock drug solution concentrations were at least 10-fold higher than the highest concentration tested. […]
(§7) Preparation of Inoculum Suspensions: On Sabouraud dextose agar (SDA; BBL, Becton and Dickinson and Co., Cockeysville, Md.) all isolates were subcultured at least twice before use to ensure purity and viability. […] The turbidity of each mixed suspension was measured at 530 nm and adjusted to 1×10^6 to 5×10^6 CFU/ml by the NCCLS spectrophotometric method described by National Committee for Clinical Laboratory Standards. […]
(§8) Aspergillus fumigatus and Mucor spp. were grown for 1 wk at 35° C. […] The stock suspensions of all filamentous fungi were measured at 530 nm and adjusted to 85-87% transmission. The concentration (1×10^6 to 5×10^6 CFU/ml) was determined by hemacytometer count or plate count on SDA. […]

fungal isolates = experiment: Fungicidal activity (MFC), fungal isolates overall; format: cell-based, fungi; conditions: Table 2 organisms
Experimental: as §1, §2, §7, §8

## C[C@@H]1[C@H](O)[C@@H](C)/C=C/C=C/C=C/C=C/C=C/C=C/C=C/[C@H](O[C@@H]2O[C@H](C)[C@@H](O)[C@H](N)[C@@H]2O)C[C@@H]2O[C@](O)(C[C@@H](O)C[C@@H](O)[C@H](O)CC[C@@H](O)C[C@@H](O)CC(=O)O[C@H]1C)C[C@H](O)[C@H]2C(=O)O [AmB, amphotericin B, reference compound]
Aspergillus fumigatus [1]
  MIC range: 0.15 to 1.25 µg/mL
Candida albicans
  MIC range: 0.04 to 0.3 µg/mL
Candida kefyr [2]
  MIC (μg/ml) range: 0.3 µg/mL (≈ 0.325 µM)
Candida krusei [3]
  MIC (μg/ml) range: 0.3 to 0.6 µg/mL
Candida lusitaniae [4]
  MIC range: 0.3 µg/mL (≈ 0.325 µM)
Candida parapsilosis [5]
  MIC range: 0.6 µg/mL (≈ 0.649 µM)
Candida rugosa [6]; Table 1 (MICs), Candida rugosa, 2 isolates, 48 hr
  MIC range: 0.3 to 1.25 µg/mL
Candida rugosa [6]; one strain of C. rugosa (AmB-resistant)
  susceptibility of one strain of C. rugosa: resistance
Candida tropicalis [7]; Table 1 (MICs), Candida tropicalis, 2 isolates, 48 hr
  MIC (μg/ml) range: 0.3 to 1.25 µg/mL
Candida tropicalis [7]; one strain of C. tropicalis
  susceptibility of one strain of C. tropicalis: resistance
Cryptococcus neoformans [8]; Table 1 (MICs), Cryptococcus neoformans, 14 isolates, 72 hr
  MIC range: 0.08 to 1.25 µg/mL
Cryptococcus neoformans [8]; one strain of C. neoformans, very sensitive to ST-B, somewhat resistant to AmB
  MIC, one strain of C. neoformans: 1.25 µg/mL
Microsporum spp. [9]
  MIC range: 0.04 to 0.3 µg/mL
Mucor spp. [10]
  MIC range: 0.02 to 0.15 µg/mL
Saccharomyces cerevisiae [11]
  MFC (μg/ml) range: 0.3 µg/mL (≈ 0.325 µM)
Trichophyton spp. [12]
  MIC range: 0.3 to 0.6 µg/mL
Aspergillus fumigatus [13]
  MFC (μg/ml) range: 0.6 to 2.5 µg/mL
Candida kefyr [14]
  MFC (μg/ml) range: 0.3 µg/mL (≈ 0.325 µM)
Candida krusei [15]
  MFC (μg/ml) range: 0.6 µg/mL (≈ 0.649 µM)
Candida lusitaniae [16]
  MFC (μg/ml) range: 0.6 µg/mL (≈ 0.649 µM)
Candida parapsilosis [17]
  MFC (μg/ml) range: 1.25 µg/mL (≈ 1.35 µM)
Candida rugosa [18]
  MFC (μg/ml) range: 0.6 to 2.5 µg/mL
Candida tropicalis [19]
  MFC (μg/ml) range: 0.6 to 1.25 µg/mL
Cryptococcus neoformans [20]
  MFC (μg/ml) range: 0.15 to 1.25 µg/mL
Microsporum spp. [21]
  MFC (μg/ml) range: 0.08 to 0.3 µg/mL
Mucor spp. [22]
  MFC (μg/ml) range: ≤0.02 to 0.3 µg/mL
Saccharomyces cerevisiae [23]
  MFC (μg/ml) range: 1.25 µg/mL (≈ 1.35 µM)
Trichophyton spp. [24]
  MFC (μg/ml) range: 0.3 to 0.6 µg/mL
[25]
  susceptibility (MIC) of the clinical isolates: 0.02-1.25 g/ml
Fungal isolates
  fungicidal activity: fungicidal activity against most of the strains tested
